The text below walks through data of BindingDB's records for doi:10.1124/jpet.102.047092 (Case Western Reserve University, 2003).

The target in assay [1] is Beta-2 adrenergic receptor (Rattus norvegicus, UniProt P10608).
The target in assay [2] is T1, 5-hydroxytryptamine receptor 3A (Homo sapiens, UniProt P46098).
T1 sequence (P46098 whole entry): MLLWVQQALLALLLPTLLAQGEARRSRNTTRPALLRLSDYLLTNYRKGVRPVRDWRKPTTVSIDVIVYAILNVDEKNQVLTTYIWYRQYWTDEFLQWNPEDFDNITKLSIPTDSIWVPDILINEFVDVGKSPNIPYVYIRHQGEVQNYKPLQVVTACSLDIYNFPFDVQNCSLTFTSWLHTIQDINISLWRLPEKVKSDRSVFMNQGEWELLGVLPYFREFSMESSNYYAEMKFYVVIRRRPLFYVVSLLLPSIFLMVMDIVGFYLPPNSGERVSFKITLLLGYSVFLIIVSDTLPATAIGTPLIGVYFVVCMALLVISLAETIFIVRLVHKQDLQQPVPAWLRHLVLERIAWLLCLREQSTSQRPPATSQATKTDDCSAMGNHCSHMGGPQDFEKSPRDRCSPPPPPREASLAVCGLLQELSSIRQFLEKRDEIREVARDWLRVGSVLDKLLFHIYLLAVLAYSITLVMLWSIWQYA

Assay [3] has as its target Sodium-dependent dopamine transporter (Homo sapiens, UniProt Q01959).
Assay [4] has as its target Glutamate receptor ionotropic, NMDA 1 (Rattus norvegicus, UniProt P35439).
The target of assay [5] is T2, 5-hydroxytryptamine receptor 2C (Rattus norvegicus, UniProt P08909).
T2 sequence (P08909 whole entry): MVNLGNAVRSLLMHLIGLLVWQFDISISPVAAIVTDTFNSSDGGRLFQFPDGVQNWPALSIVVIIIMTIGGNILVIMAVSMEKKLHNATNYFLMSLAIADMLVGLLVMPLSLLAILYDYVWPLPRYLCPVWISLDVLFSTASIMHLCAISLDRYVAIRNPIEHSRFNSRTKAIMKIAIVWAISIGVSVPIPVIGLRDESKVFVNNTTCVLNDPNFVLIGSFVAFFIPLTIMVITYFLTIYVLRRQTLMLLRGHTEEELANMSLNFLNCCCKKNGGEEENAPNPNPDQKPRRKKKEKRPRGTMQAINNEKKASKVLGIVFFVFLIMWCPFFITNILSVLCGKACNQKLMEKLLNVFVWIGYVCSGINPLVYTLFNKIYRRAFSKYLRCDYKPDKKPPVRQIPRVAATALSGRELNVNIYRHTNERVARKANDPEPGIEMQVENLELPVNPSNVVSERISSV

In another assay the target is D(2) dopamine receptor (Homo sapiens, UniProt P14416).
Assay [6] concerns the target T3, Muscarinic acetylcholine receptor M2 (Homo sapiens, UniProt P08172).
T3 sequence (P08172 whole entry): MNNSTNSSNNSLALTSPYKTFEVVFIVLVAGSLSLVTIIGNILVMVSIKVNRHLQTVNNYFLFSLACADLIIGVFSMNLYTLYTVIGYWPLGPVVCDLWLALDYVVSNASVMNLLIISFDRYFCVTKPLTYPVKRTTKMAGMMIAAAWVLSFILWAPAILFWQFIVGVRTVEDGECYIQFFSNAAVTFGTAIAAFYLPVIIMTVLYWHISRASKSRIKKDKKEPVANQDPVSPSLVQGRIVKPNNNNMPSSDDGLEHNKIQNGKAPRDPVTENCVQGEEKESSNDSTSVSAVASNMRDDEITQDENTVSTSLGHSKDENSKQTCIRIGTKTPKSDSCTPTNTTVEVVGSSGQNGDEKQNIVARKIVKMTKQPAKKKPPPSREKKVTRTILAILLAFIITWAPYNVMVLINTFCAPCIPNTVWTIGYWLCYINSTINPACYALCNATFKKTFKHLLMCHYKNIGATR

The next assay deals with Mu-type opioid receptor (Homo sapiens, UniProt P35372).
Assay [7] deals with Muscarinic acetylcholine receptor M3 (Homo sapiens, UniProt P20309).
Assay [8] addresses T4, Alpha-1A adrenergic receptor (Homo sapiens, UniProt P35348).
T4 sequence (P35348 whole entry): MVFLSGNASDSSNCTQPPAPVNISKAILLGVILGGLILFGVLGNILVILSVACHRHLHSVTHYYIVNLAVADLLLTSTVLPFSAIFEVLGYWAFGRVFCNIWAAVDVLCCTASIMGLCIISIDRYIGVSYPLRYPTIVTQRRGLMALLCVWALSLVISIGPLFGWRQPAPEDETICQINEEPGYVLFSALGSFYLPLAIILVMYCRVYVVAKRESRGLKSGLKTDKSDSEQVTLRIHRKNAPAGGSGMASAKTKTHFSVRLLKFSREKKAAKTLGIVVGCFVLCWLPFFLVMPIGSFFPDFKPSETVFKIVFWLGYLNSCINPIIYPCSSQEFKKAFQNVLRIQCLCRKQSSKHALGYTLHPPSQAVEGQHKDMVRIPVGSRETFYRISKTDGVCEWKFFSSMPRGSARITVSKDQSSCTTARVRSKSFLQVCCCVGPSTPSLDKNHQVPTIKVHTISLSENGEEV

Assay [9] addresses T5, Alpha-2A adrenergic receptor (Homo sapiens, UniProt P08913).
T5 sequence (P08913 whole entry): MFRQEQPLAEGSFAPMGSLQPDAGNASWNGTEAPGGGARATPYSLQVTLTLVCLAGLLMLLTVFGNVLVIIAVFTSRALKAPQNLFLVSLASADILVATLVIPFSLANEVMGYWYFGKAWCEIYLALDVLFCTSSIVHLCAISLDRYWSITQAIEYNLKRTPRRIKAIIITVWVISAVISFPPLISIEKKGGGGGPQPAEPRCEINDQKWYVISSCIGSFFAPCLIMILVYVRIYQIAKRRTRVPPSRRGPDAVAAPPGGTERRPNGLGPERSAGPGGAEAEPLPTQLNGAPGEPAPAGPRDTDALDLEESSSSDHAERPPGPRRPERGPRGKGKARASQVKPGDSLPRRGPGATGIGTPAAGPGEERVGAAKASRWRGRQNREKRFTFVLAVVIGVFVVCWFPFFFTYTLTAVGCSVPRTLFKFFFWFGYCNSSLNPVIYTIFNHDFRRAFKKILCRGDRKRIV

“And” between values parts separate entries of the source, which are not always exact repeats. Equal values may be shown once.

Muscarinic acetylcholine receptor M3, sequence (P20309 whole entry): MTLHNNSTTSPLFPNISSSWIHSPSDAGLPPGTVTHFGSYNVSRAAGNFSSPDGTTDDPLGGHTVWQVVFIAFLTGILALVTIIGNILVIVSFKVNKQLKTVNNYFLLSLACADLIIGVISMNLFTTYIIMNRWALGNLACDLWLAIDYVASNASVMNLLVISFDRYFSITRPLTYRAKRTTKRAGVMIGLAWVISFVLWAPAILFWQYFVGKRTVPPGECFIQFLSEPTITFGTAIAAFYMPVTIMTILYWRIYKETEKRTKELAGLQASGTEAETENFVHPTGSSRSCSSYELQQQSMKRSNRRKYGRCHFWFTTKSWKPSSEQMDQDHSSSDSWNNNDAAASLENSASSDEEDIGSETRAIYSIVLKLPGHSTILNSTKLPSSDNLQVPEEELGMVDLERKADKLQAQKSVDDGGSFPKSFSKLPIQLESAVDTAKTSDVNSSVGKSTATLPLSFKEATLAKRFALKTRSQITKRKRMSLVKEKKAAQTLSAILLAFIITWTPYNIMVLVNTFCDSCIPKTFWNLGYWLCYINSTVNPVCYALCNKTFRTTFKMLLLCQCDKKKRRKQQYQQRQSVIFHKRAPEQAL
Sodium-dependent dopamine transporter, sequence (Q01959 whole entry): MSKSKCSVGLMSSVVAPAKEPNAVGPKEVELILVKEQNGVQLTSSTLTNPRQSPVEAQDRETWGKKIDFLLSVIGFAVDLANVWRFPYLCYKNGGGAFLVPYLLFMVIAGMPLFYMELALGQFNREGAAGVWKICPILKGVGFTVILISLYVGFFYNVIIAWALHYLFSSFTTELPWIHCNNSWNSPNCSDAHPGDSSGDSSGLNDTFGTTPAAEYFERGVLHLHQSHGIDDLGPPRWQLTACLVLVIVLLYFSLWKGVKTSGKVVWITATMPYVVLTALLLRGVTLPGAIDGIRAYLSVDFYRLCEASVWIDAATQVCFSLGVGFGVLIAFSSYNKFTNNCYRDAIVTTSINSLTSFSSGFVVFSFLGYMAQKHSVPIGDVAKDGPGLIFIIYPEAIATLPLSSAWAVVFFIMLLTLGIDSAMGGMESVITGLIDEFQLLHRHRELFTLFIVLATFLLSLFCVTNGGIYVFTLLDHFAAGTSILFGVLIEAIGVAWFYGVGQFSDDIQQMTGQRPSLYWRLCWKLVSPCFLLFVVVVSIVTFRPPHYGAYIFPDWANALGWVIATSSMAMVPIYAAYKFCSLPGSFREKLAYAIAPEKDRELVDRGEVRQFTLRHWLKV
D(2) dopamine receptor, sequence (P14416 whole entry): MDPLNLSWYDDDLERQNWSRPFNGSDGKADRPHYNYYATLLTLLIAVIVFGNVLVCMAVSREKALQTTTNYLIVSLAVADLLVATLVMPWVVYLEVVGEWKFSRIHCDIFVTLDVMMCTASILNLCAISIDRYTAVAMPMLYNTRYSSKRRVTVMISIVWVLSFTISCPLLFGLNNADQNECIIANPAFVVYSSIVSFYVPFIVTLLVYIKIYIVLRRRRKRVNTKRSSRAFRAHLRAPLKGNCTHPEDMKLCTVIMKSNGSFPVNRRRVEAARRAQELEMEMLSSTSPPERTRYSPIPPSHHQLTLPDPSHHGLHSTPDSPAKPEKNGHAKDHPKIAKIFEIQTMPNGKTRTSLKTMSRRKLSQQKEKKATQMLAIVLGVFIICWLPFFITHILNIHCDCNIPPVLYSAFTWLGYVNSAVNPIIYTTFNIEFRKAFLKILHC
Beta-2 adrenergic receptor, sequence (P10608 whole entry): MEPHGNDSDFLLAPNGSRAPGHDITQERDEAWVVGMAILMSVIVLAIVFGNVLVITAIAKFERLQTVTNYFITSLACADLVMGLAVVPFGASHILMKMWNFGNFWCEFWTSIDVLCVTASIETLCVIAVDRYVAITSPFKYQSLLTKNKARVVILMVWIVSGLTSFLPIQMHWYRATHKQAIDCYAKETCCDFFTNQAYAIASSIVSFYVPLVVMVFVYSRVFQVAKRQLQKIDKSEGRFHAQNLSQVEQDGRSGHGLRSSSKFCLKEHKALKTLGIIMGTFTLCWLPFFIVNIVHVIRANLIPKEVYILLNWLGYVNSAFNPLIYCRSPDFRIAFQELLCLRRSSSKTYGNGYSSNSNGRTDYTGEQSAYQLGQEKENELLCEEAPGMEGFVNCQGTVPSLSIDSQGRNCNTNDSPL
Mu-type opioid receptor, sequence (P35372 whole entry): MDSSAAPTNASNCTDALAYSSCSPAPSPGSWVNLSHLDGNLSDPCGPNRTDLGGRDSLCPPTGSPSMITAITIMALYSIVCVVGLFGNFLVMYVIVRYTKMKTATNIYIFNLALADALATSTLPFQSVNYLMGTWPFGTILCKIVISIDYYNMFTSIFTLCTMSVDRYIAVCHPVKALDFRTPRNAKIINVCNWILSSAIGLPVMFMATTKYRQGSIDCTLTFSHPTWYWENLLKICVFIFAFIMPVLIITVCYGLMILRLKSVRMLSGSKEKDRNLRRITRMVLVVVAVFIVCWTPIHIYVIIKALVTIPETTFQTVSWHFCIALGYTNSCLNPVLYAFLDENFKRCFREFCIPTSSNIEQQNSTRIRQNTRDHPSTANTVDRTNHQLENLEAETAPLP

With `N[C@@H](CCS(=O)(=O)O)C(=O)O` (racemic), the inhibition constant Ki (in [1]; in assay [2]; in assay [3]; in [4]; in assay [5]; at D(2) dopamine receptor) was above 10 µM each time. For the same compound, the Ki (in [6]; at Mu-type opioid receptor; in [7]; in [8]; in assay [9]) was above 10 µM in each case.
Turning to `N[C@@H](CCS)C(=O)O` (racemic) [CAS_778], the Ki (in assay [1]; in assay [2]; in assay [3]; in [4]; in assay [5]; at D(2) dopamine receptor) was above 10 µM in each case. The Ki (in assay [6]; on Mu-type opioid receptor; in [7]; in assay [8]; in assay [9]) was above 10 µM in each case.
As for `NC(CS(=O)O)C(=O)O` (configuration not stated) [CAS_109], the inhibition constant (Ki) (in [1]; in assay [2]; in assay [3]; in assay [4]; in [5]; on D(2) dopamine receptor) was above 10 µM each time. For the same compound, the Ki (in [6]; at Mu-type opioid receptor; in assay [7]; in assay [8]; in assay [9]) was above 10 µM in each case.
As to `NC(CSSCC(N)C(=O)O)C(=O)O` (configuration not stated) [CAS_595], the Ki (commonly a measure of affinity in units of concentration, obtained from inhibition or displacement) is above 10 µM in assay [1]; above 10 µM in [2]; above 10 µM in [3]; > 10 µM and 3.24 µM in assay [4]; above 10 µM in assay [5]; above 10 µM on D(2) dopamine receptor. For the same compound, the Ki (in [6]; on Mu-type opioid receptor; in assay [7]; in [8]; in assay [9]) was above 10 µM throughout.
In the case of `N[C@@H](CS)C(=O)O` [CAS_5862], the inhibition constant (Ki) (in assay [1]; in assay [2]; in assay [3]; in [4]; in assay [5]; at D(2) dopamine receptor) was above 10 µM each time. For the same compound, the inhibition constant (Ki) (in [6]; at Mu-type opioid receptor; in [7]; in assay [8]; in assay [9]) was above 10 µM in each case.
As for `CSCC[C@@H](N)C(=O)O` [CAS_6137], the Ki (in assay [1]; in assay [2]; in [3]; in assay [4]; in assay [5]; on D(2) dopamine receptor) was above 10 µM each time. The inhibition constant (Ki) (in assay [6]; on Mu-type opioid receptor; in [7]; in [8]; in assay [9]) was above 10 µM each time.
On to `N[C@H](CCS(=O)(=O)O)C(=O)O` [D-homocysteic acid], for which the Ki (in [1]; in [2]; in assay [3]; in assay [4]; in [5]; on D(2) dopamine receptor) was above 10 µM throughout. The inhibition constant (Ki) (in [6]; on Mu-type opioid receptor; in assay [7]; in assay [8]; in assay [9]) was above 10 µM in each case.
For the compound `N[C@H](CCS(=O)O)C(=O)O` [D-homocysteine sulfinic acid], the Ki (in [1]; in [2]; in assay [3]; in [4]; in assay [5]; on D(2) dopamine receptor) was above 10 µM in each case. The Ki (in assay [6]; at Mu-type opioid receptor; in [7]; in assay [8]; in [9]) was above 10 µM each time.
`N[C@@H]1CCSC1=O` [D-homocysteine thiolactone]: the Ki (in assay [1]; in assay [2]; in assay [3]; in assay [4]; in assay [5]; at D(2) dopamine receptor) was above 10 µM each time. In addition, the Ki (in assay [6]; on Mu-type opioid receptor; in assay [7]; in [8]; in [9]) was above 10 µM throughout.
On to `N[C@H](CS(=O)(=O)O)C(=O)O` [L-cysteic acid], for which the inhibitory constant (Ki) (in [1]; in assay [2]; in assay [3]; in [4]; in assay [5]; on D(2) dopamine receptor) was above 10 µM in each case. In addition, the inhibition constant (Ki) (in assay [6]; at Mu-type opioid receptor; in assay [7]; in assay [8]; in assay [9]) was above 10 µM in each case.
As to `N[C@@H](CCS(=O)O)C(=O)O` [L-homocysteine sulfinic acid], the Ki (in assay [1]; in assay [2]; in assay [3]; in assay [4]; in assay [5]; at D(2) dopamine receptor) was above 10 µM in each case. Further, the inhibition constant Ki (in assay [6]; at Mu-type opioid receptor; in assay [7]; in [8]; in assay [9]) was above 10 µM in each case.
Regarding `N[C@H]1CCSC1=O` [NSC_134505], the inhibition constant Ki (in [1]; in assay [2]; in [3]; in assay [4]; in [5]; on D(2) dopamine receptor) was above 10 µM in each case. Besides, the inhibition constant (Ki) (in [6]; at Mu-type opioid receptor; in assay [7]; in [8]; in assay [9]) was above 10 µM throughout.
